In ChEMBL document CHEMBL1201862, “PubChem BioAssay data set” (2004):
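Where inhibition never reached the appropriate level, the endpoint shown equals the highest concentration tested. Otherwise, values were interpolated linearly from a five-concentration, 48-hour dose response in 96-well plates. GI50 marks 50% less growth.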 Active and inactive are the calls of the source. Cut-off read from the data, not from the text of the source: active = GI50 up to about 1.1 µM and inactive = higher.

Key:
Assay in all cases: growth of human tumour cells (NCI), 48 h
786-0 = tested on: 786-0
A498 = tested on: A498
A549 = tested on: A549
ACHN = tested on: ACHN
CAKI-1 = tested on: CAKI-1
CCRF-CEM = tested on: CCRF-CEM
COLO 205 = tested on: COLO 205
DU-145 = tested on: DU-145
EKVX = tested on: EKVX
HCC 2998 = tested on: HCC 2998
HCT-116 = tested on: HCT-116
HL-60 = tested on: HL-60
HOP-62 = tested on: HOP-62
HOP-92 = tested on: HOP-92
HT-29 = tested on: HT-29
Hs-578T = tested on: Hs-578T
IGROV-1 = tested on: IGROV-1
K562 = tested on: K562
KM12 = tested on: KM12
LOX IMVI = tested on: LOX IMVI
M14 = tested on: M14
MCF7 = tested on: MCF7
MDA-MB-231 = tested on: MDA-MB-231
MDA-MB-435 = tested on: MDA-MB-435
MDA-N = tested on: MDA-N
MOLT-4 = tested on: MOLT-4
Malme-3M = tested on: Malme-3M
NCI-H226 = tested on: NCI-H226
NCI-H23 = tested on: NCI-H23
NCI-H460 = tested on: NCI-H460
NCI-H522 = tested on: NCI-H522
NCI/ADR-RES = tested on: NCI/ADR-RES
OVCAR-3 = tested on: OVCAR-3
OVCAR-4 = tested on: OVCAR-4
OVCAR-5 = tested on: OVCAR-5
OVCAR-8 = tested on: OVCAR-8
PC-3 = tested on: PC-3
RPMI-8226 = tested on: RPMI-8226
RXF 393 = tested on: RXF 393
SF-268 = tested on: SF-268
SF-295 = tested on: SF-295
SF-539 = tested on: SF-539
SK-MEL-28 = tested on: SK-MEL-28
SK-MEL-5 = tested on: SK-MEL-5
SK-OV-3 = tested on: SK-OV-3
SN12C = tested on: SN12C
SNB-19 = tested on: SNB-19
SNB-75 = tested on: SNB-75
SR = tested on: SR
SW-620 = tested on: SW-620
TK-10 = tested on: TK-10
UACC-257 = tested on: UACC-257
UACC-62 = tested on: UACC-62
UO-31 = tested on: UO-31
BT-549 = tested on: BT-549
HCT-15 = tested on: HCT-15
SK-MEL-2 = tested on: SK-MEL-2
U-251 = tested on: U-251

Question: What does the source list for [O-][n+]1onc(-c2ccccc2)c1-c1no[n+]([O-])c1-c1c(-c2ccccc2)no[n+]1[O-]?
Answer: GI50 (786-0): 8.93 µM (inactive); GI50 (A498): 13.9 µM (inactive); GI50 (A549): 23.1 µM (inactive); GI50 (ACHN): 4.81 µM (inactive); GI50 (CAKI-1): 12.8 µM (inactive); GI50 (CCRF-CEM): 5.18 µM (inactive); GI50 (COLO 205): 6.37 µM (inactive); GI50 (DU-145): 9.89 µM (inactive); GI50 (EKVX): 37.2 µM (inactive); GI50 (HCC 2998): 74.1 µM (inactive); GI50 (HCT-116): 3.3 µM (inactive); GI50 (HL-60): 2.43 µM (inactive); GI50 (HOP-62): 14.9 µM (inactive); GI50 (HOP-92): 10.6 µM (inactive); GI50 (HT-29): 3.62 µM (inactive); GI50 (Hs-578T): 54.1 µM (inactive); GI50 (IGROV-1): 8.83 µM (inactive); GI50 (K562): 2.51 µM (inactive); GI50 (KM12): 7.43 µM (inactive); GI50 (LOX IMVI): 2.82 µM (inactive); GI50 (M14): 12.1 µM (inactive); GI50 (MCF7): 3.23 µM (inactive); GI50 (MDA-MB-231): 15.8 µM (inactive); GI50 (MDA-MB-435): 2.34 µM (inactive); GI50 (MDA-N): 2.58 µM (inactive); GI50 (MOLT-4): 3.56 µM (inactive); GI50 (Malme-3M): 20.4 µM (inactive); GI50 (NCI-H226): 15.2 µM (inactive); GI50 (NCI-H23): 3.72 µM (inactive); GI50 (NCI-H460): 3.27 µM (inactive); GI50 (NCI-H522): 18.8 µM (inactive); GI50 (NCI/ADR-RES): 3.98 µM (inactive); GI50 (OVCAR-3): 5.71 µM (inactive); GI50 (OVCAR-4): 2.94 µM (inactive); GI50 (OVCAR-5): 18.6 µM (inactive); GI50 (OVCAR-8): 24.1 µM (inactive); GI50 (PC-3): 2.47 µM (inactive); GI50 (RPMI-8226): 3.03 µM (inactive); GI50 (RXF 393): 3.35 µM (inactive); GI50 (SF-268): 12.6 µM (inactive); GI50 (SF-295): 24.8 µM (inactive); GI50 (SF-539): 21 µM (inactive); GI50 (SK-MEL-28): 33.7 µM (inactive); GI50 (SK-MEL-5): 14.8 µM (inactive); GI50 (SK-OV-3): 43.8 µM (inactive); GI50 (SN12C): 7.67 µM (inactive); GI50 (SNB-19): 27 µM (inactive); GI50 (SNB-75): 2.52 µM (inactive); GI50 (SR): 2.7 µM (inactive); GI50 (SW-620): 4.1 µM (inactive); GI50 (TK-10): 44.5 µM (inactive); GI50 (UACC-257): 13.1 µM (inactive); GI50 (UACC-62): 12.6 µM (inactive); GI50 (UO-31): 7.4 µM (inactive)

Question: With O=C(c1ccc(Cl)cc1Cl)N(C(=O)N1CCCCC1)c1ccccc1 as the compound, how does the GI50 (786-0) read?
Answer: > 100 µM (inactive)

Question: What about the GI50 (A498) of the same compound?
Answer: > 100 µM (inactive)

Question: What about the GI50 (ACHN) of the same compound?
Answer: > 100 µM (inactive)

Question: And the GI50 (BT-549)?
Answer: > 100 µM (inactive)

Question: What about the GI50 (CAKI-1) of the same compound?
Answer: > 100 µM (inactive)

Question: And the GI50 (CCRF-CEM)?
Answer: > 100 µM (inactive)

Question: And the GI50 (COLO 205)?
Answer: > 100 µM (inactive)

Question: And the GI50 (DU-145)?
Answer: > 100 µM (inactive)

Question: And the GI50 (EKVX)?
Answer: 5.45 µM (inactive)

Question: And the GI50 (HCT-116)?
Answer: > 100 µM (inactive)

Question: What about the GI50 (HCT-15) of the same compound?
Answer: > 100 µM

Question: What about the GI50 (HL-60) of the same compound?
Answer: > 100 µM (inactive)

Question: What about the GI50 (HT-29) of the same compound?
Answer: > 100 µM (inactive)

Question: What about the GI50 (Hs-578T) of the same compound?
Answer: > 100 µM (inactive)

Question: What about the GI50 (IGROV-1) of the same compound?
Answer: > 100 µM (inactive)

Question: And the GI50 (K562)?
Answer: > 100 µM (inactive)

Question: What about the GI50 (KM12) of the same compound?
Answer: > 100 µM (inactive)

Question: And the GI50 (LOX IMVI)?
Answer: > 100 µM (inactive)

Question: What about the GI50 (M14) of the same compound?
Answer: > 100 µM (inactive)

Question: What about the GI50 (MCF7) of the same compound?
Answer: > 100 µM (inactive)

Question: What about the GI50 (MDA-MB-231) of the same compound?
Answer: > 100 µM (inactive)

Question: What about the GI50 (MDA-MB-435) of the same compound?
Answer: > 100 µM (inactive)

Question: What about the GI50 (MDA-N) of the same compound?
Answer: > 100 µM (inactive)

Question: What about the GI50 (MOLT-4) of the same compound?
Answer: > 100 µM (inactive)

Question: What about the GI50 (Malme-3M) of the same compound?
Answer: 5.94 µM (inactive)

Question: And the GI50 (NCI-H226)?
Answer: > 100 µM (inactive)

Question: And the GI50 (NCI-H23)?
Answer: > 100 µM (inactive)

Question: What about the GI50 (NCI/ADR-RES) of the same compound?
Answer: > 100 µM (inactive)

Question: What about the GI50 (OVCAR-3) of the same compound?
Answer: 42.5 µM (inactive)

Question: And the GI50 (OVCAR-5)?
Answer: 69.3 µM (inactive)

Question: What about the GI50 (OVCAR-8) of the same compound?
Answer: > 100 µM (inactive)

Question: And the GI50 (PC-3)?
Answer: > 100 µM (inactive)

Question: And the GI50 (RPMI-8226)?
Answer: > 100 µM (inactive)

Question: What about the GI50 (RXF 393) of the same compound?
Answer: > 100 µM (inactive)

Question: And the GI50 (SF-268)?
Answer: > 100 µM (inactive)

Question: What about the GI50 (SF-295) of the same compound?
Answer: > 100 µM (inactive)

Question: And the GI50 (SF-539)?
Answer: > 100 µM (inactive)

Question: What about the GI50 (SK-MEL-28) of the same compound?
Answer: > 100 µM (inactive)

Question: What about the GI50 (SK-MEL-2) of the same compound?
Answer: > 100 µM (inactive)

Question: What about the GI50 (SK-MEL-5) of the same compound?
Answer: > 100 µM (inactive)

Question: What about the GI50 (SK-OV-3) of the same compound?
Answer: > 100 µM (inactive)

Question: What about the GI50 (SN12C) of the same compound?
Answer: > 100 µM (inactive)

Question: And the GI50 (SNB-19)?
Answer: > 100 µM (inactive)

Question: And the GI50 (SW-620)?
Answer: > 100 µM (inactive)

Question: What about the GI50 (TK-10) of the same compound?
Answer: > 100 µM (inactive)

Question: And the GI50 (U-251)?
Answer: > 100 µM (inactive)

Question: And the GI50 (UACC-257)?
Answer: > 100 µM (inactive)

Question: And the GI50 (UACC-62)?
Answer: > 100 µM (inactive)

Question: And the GI50 (UO-31)?
Answer: > 100 µM (inactive)

Question: Which results are given for CCOC(=O)C(O)(NC(=O)NC(O)(C(=O)OCC)C(F)(F)F)C(F)(F)F (stereo not given)?
Answer: GI50 (786-0): > 100 µM (inactive); GI50 (A498): > 100 µM (inactive); GI50 (ACHN): > 100 µM (inactive); GI50 (CCRF-CEM): > 100 µM (inactive); GI50 (COLO 205): > 100 µM (inactive); GI50 (HCC 2998): > 100 µM (inactive); GI50 (HCT-116): > 100 µM (inactive); GI50 (HCT-15): > 100 µM; GI50 (HL-60): > 100 µM (inactive); GI50 (HT-29): > 100 µM (inactive); GI50 (K562): > 100 µM (inactive); GI50 (LOX IMVI): > 100 µM (inactive); GI50 (MDA-N): > 100 µM (inactive); GI50 (MOLT-4): > 100 µM (inactive); GI50 (NCI-H23): > 100 µM (inactive); GI50 (NCI/ADR-RES): > 100 µM (inactive); GI50 (OVCAR-5): > 100 µM (inactive); GI50 (PC-3): > 100 µM (inactive); GI50 (RPMI-8226): > 100 µM (inactive); GI50 (RXF 393): > 100 µM (inactive); GI50 (SF-268): > 100 µM (inactive); GI50 (SF-539): > 100 µM (inactive); GI50 (SK-MEL-28): > 100 µM (inactive); GI50 (SK-MEL-2): > 100 µM (inactive); GI50 (SK-OV-3): > 100 µM (inactive); GI50 (SN12C): > 100 µM (inactive); GI50 (SNB-19): > 100 µM (inactive); GI50 (SNB-75): > 100 µM (inactive); GI50 (SR): > 100 µM (inactive); GI50 (U-251): > 100 µM (inactive); GI50 (UACC-257): > 100 µM (inactive); GI50 (UO-31): > 100 µM (inactive)
